Active and inactive are the calls of the source.
Assays:
[1] = NIH-3T3 fibroblast cytotoxicity, dose response, cytotoxicity control, cell-based, fluorescence, Alamar Blue, secondary assay (AID 2327); format: functional;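 further: NIH-3T3 mouse fibroblasts cultured with fluconazole at 8 µg/mL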
[2] = target: T1, Rac GTPase-activating protein 1 (Homo sapiens, UniProt Q9H0H5); experiment: blockers of MgcRacGAP-driven Rac1 GTP hydrolysis – biochemical, ADP Hunter fluorescence, primary and confirmatory, confirmation (AID 624330); format: functional
T1 sequence (Q9H0H5 whole entry): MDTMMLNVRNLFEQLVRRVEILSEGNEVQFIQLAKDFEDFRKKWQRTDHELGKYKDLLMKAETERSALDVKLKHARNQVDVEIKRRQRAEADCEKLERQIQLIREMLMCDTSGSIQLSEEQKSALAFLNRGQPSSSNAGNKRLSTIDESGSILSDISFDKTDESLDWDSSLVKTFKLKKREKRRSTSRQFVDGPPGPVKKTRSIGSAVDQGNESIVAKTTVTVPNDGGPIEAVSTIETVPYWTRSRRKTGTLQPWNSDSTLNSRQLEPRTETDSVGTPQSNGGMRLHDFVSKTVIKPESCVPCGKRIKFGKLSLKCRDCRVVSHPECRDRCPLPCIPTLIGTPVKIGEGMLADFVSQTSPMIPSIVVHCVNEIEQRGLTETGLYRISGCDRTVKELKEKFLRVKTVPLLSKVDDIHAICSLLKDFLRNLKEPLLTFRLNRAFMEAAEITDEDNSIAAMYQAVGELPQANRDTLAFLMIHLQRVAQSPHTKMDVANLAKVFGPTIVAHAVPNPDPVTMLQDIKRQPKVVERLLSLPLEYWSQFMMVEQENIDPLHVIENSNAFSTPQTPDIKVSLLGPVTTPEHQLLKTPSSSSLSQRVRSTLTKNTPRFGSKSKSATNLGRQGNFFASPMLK

[3] = target: T2, Corticotropin-releasing factor receptor 2/Corticotropin-releasing factor-binding protein (Homo sapiens, UniProt P24387+Q13324); experiment: Dose Response confirmation of uHTS hits for small molecule antagonists of the CRF-binding protein and CRF-R2 receptor complex.; format: functional; settings: read-out: IC50_Mean
T2 sequence (Q13324 whole entry): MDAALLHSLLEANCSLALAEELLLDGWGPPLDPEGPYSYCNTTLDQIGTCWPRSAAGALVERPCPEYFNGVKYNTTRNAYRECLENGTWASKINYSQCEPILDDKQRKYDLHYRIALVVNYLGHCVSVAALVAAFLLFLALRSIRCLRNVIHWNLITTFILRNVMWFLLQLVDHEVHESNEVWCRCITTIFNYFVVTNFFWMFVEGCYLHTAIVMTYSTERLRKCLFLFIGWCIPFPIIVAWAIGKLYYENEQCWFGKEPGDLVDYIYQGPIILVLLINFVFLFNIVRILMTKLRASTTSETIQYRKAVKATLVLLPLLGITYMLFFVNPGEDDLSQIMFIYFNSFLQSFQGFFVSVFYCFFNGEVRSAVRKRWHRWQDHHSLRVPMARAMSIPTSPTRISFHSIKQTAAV
T2 sequence (P24387 whole entry): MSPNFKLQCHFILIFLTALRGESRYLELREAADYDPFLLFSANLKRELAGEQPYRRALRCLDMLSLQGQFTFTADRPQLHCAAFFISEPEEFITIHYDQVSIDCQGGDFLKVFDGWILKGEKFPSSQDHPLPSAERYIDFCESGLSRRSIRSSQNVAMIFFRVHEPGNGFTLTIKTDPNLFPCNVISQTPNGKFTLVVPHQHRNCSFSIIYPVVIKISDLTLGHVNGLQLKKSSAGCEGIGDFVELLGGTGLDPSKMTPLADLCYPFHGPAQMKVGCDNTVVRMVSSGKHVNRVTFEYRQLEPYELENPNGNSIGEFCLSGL

[4] = target: T2, Corticotropin-releasing factor receptor 2/Corticotropin-releasing factor-binding protein; experiment: activators of CRF receptor 2 with binding protein – uHTS hits, confirmation (AID 602473); format: functional; settings: read-out: EC50_Mean
[5] = cells; format: functional
[6] = test system: Streptococcus sp. 'group A'; experiment: Streptococcus pyogenes SK(-)GAS viability under kanamycin – luminescence, BacTiterGlo, confirmation, counter-screen for streptokinase expression inhibitor project, dose response (AID 1900); format: functional, organism-based
[7] = target: T3, Streptokinase A (Streptococcus pyogenes serotype M1, UniProt P10520); experiment: viability-normalized secreted streptokinase activity reduction – plasminogen activation absorbance, OD405, dose response (AID 1914); format: functional, Streptococcus pyogenes M1 GAS;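 further: secreted streptokinase activity via plasminogen activation per viability signal from cell pellet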
T3 sequence (P10520 whole entry): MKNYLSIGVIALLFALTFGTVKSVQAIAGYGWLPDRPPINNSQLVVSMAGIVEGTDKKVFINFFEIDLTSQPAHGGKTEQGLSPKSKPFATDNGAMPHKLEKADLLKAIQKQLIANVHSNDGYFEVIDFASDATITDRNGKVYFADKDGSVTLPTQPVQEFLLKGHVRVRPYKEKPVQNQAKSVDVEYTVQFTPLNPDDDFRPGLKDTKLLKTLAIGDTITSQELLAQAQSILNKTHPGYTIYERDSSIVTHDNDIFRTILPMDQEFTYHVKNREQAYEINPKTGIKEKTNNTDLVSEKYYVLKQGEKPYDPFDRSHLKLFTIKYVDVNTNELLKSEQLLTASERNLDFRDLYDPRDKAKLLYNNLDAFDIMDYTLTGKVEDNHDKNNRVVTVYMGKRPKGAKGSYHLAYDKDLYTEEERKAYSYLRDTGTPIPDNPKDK

[8] = test system: Streptococcus; experiment: GAS UMAA2166 growth inhibition – luminescence, BacTiterGlo, counter-screen for streptokinase expression inhibitor project, dose response (AID 1915); format: functional, organism-based;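 further: potency for reduction of bacterial viability or growth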
[9] = P. falciparum Dd2 growth inhibitors, dose response, SYBR Green, cherry-picked samples (AID 1159567); format: functional, cell-based

With `Cn1c(SCC(=O)N2CCCc3ccccc32)nnc1-c1ccccc1` the EC50 [1] was > 160 µM (inactive).
With `Cc1ccccc1OCCN1CCCC1` the IC50 [2] was 176 µM (active).
In the case of `N#C/C(=C\c1ccc(N2CCOCC2)o1)c1ccccc1`, the IC50 [2] is reported as 47.1 µM (active).
For `CSc1ccc(CCNC(=O)c2ccc(C[S+]([O-])Cc3ccc(Cl)cc3)o2)cc1` (centres undefined), the IC50 [3] was > 47.1 µM (inactive) and the EC50 [4] was > 53 µM (inactive).
In the case of `O=C(Nc1ccn(Cc2ccccc2)n1)c1ccc(F)cc1`, the IC50 [5] is reported as > 50 µM (active).
In the case of `COc1ccc(NC(=O)C(=O)NNC(=O)C(C)Oc2ccc(Cl)cc2Cl)cc1` (centres undefined), the EC50 [6] is reported as 4.84 µM (active), the EC50 [7] is reported as > 150 µM (not active) and the EC50 [8] is reported as 18.5 µM (active). The IC50 [5] was 6.02 µM (active).
With `COc1ccc(-c2nc3c(c(=O)c4ccccc4n3C)c(=O)n2Cc2ccccc2)cc1` the EC50 [4] was > 53 µM (inactive).
With `CC(C)CSc1nnc2[nH]c(=O)cc(N)n12` the IC50 [3] was > 47.1 µM (inactive) and the EC50 [4] was > 53 µM (inactive).
For `CCOC(=O)c1sc(NC(=O)CN(CC(C)C)CC(C)C)c(C(=O)OCC)c1C`, the IC50 [3] was > 47.1 µM (inactive) and the EC50 [4] was > 53 µM (inactive).
With `Cc1ccc(C(C)C)c(OCC(=O)OCc2c(C)noc2C)c1` the IC50 [5] was 5.76 µM (active).
For `COc1cc2c(cc1OC)C(/C=C(\O)c1ccc(OC)c([N+](=O)[O-])c1)=NCC2`, the IC50 [3] was > 47.1 µM (inactive) and the EC50 [4] was > 53 µM (inactive).
With `Cc1ccc(NCCC(=O)c2cccs2)cc1` the IC50 [5] was 10.5 µM (active).
For `CN(C)c1ccc(NC(=O)CN2C(=O)c3ccccc3C2=O)cc1`, the IC50 [2] was 73.7 µM (active).
For `CCOc1cc(/C=C2\SC(N3CCCC(C)C3)=NC2=O)ccc1O` (centres undefined), the IC50 [2] was 26.9 µM (active).
With `COc1ccc(C2=CC(c3ccco3)n3ncnc3N2)cc1` (centres undefined) the EC50 [4] was 4.53 µM (active).
With `CSc1ccc(/C=C(/NC(=O)c2ccc(C)cc2)C(=O)Nc2cccc(F)c2)cc1` the IC50 [3] was > 47.1 µM (inactive) and the EC50 [4] was > 53 µM (inactive).
For `Cc1ccc(NC(=O)COCC(=O)Nc2ccc(C)cc2)cc1`, the IC50 [5] was 22.8 µM (active).
For `O=C(OCC(=O)N1CCCc2ccccc21)c1ccc(S(=O)(=O)C(F)F)cc1`, the IC50 [5] was 23.3 µM (active).
For `COC(=O)c1ccc(N2CCN(CCNC(=O)Nc3ccc(OC)cc3)CC2)cc1`, the IC50 [5] was 22.5 µM (active).
For `COc1ccc(CNCC(=O)Nc2cc(OC)cc(OC)c2)cc1`, the IC50 [2] was 123 µM (active).
With `COc1cc(OC)c(OC)cc1CN1CCN(Cc2ccc(SC)cc2)CC1` the IC50 [2] was 66.9 µM (active).
In the case of `CN(CC(=O)Nc1ccc2c(c1)OCCO2)CC(=O)Nc1ccc(F)c(F)c1F`, the IC50 [3] is reported as > 47.1 µM (inactive) and the EC50 [4] is reported as > 53 µM (inactive).
With `CCOC(=O)Cn1c(=O)oc2cc(S(=O)(=O)NC(C)(C)CC)ccc21` the IC50 [3] was > 47.1 µM (inactive) and the EC50 [4] was > 53 µM (inactive).
For `CC(=O)N1CCOc2cc(S(=O)(=O)N3CCN(c4ccccc4)CC3)c(Cl)cc21`, the IC50 [3] was > 47.1 µM (inactive) and the EC50 [4] was > 53 µM (inactive).
In the case of `CCOC(=O)N/N=C/c1ccc(N(CC)CC)cc1O`, the IC50 [2] is reported as 78.5 µM (active).
In the case of `COc1ccc(-c2ccc(/C=N/NC(=O)Cc3nnc(N)s3)o2)cc1Cl`, the IC50 [3] is reported as > 47.1 µM (inactive) and the EC50 [4] is reported as > 53 µM (inactive).
For `CCc1cc(/C(Cc2ccccn2)=N\O)c(O)cc1O`, the IC50 [2] was 31.6 µM (active).
With `COc1ccc(NC(=O)N(C)C[C@H]2Oc3cc(-c4ccc(C)cc4)ccc3S(=O)(=O)N([C@H](C)CO)C[C@@H]2C)cc1` the AC50 [9] was 4.83 µM (active).
For `C[C@H](CO)N1C[C@H](C)[C@@H](CN(C)C(=O)Nc2cccc3ccccc23)Oc2ccc(NC(=O)Nc3cccc4ccccc34)cc2CC1=O`, the AC50 [9] was 5.57 µM (active).
With `C[C@H](CO)N1C[C@H](C)[C@H](CN(C)CC2CC2)Oc2cc(-c3cccc(C#N)c3)ccc2S1(=O)=O` the AC50 [9] was 3.61 µM (active).
In the case of `COc1ccc(C#Cc2ccc([C@H]3[C@H]4CN(C(=O)c5ccc(F)cc5)CC(=O)N4[C@H]3CO)cc2)cc1`, the AC50 [9] is reported as 6.95 µM (active).
For `CCCC#Cc1ccc2c(c1)O[C@H](CN(C)C(=O)c1ccccc1F)[C@@H](C)CN([C@H](C)CO)S2(=O)=O`, the AC50 [9] was 4.94 µM (active).
